pEC50, pKi: −log10 of the molar value. Square brackets hold non-standard residues; d marks the D form. Peptide text beside a SMILES is read from it. * marks the point of attachment. Tyr(Nα,Nα-allyl2) = C=CCN(CC=C)[C@@H](Cc1ccc(O)cc1)C(=O)*; Aib = CC(C)(N)C(=O)O
Experiments:
[1] = species on record: Homo sapiens; experiment: Selectivity index, ratio of Ki for human KOR to Ki for human DOR
[2] = species on record: Homo sapiens; experiment: Selectivity index, ratio of Ki for human MOR to Ki for human DOR
[3] = biological target: T1, Delta-type opioid receptor (Homo sapiens, UniProt P41143); experiment: Inverse agonist activity at human DOR expressed in CHO cell membranes by [35S]GTPgammaS binding assay relative to control; format: functional
[4] = biological target: T1, Delta-type opioid receptor; experiment: Inverse agonist activity at human DOR expressed in CHO cell membranes by [35S]GTPgammaS binding assay; format: functional
[5] = biological target: T1, Delta-type opioid receptor; experiment: Displacement of [3H]DPDPE from human DOR expressed in CHO cells; format: cell-based
[6] = biological target: Kappa-type opioid receptor (Homo sapiens, UniProt P41145); experiment: Displacement of [3H]U-69,593 from human KOR expressed in CHO cells; format: cell-based
[7] = biological target: Mu-type opioid receptor (Homo sapiens, UniProt P35372); experiment: Displacement of [3H]DAMGO from human MOR expressed in CHO cells; format: cell-based
Chain of Mu-type opioid receptor (P35372 whole entry): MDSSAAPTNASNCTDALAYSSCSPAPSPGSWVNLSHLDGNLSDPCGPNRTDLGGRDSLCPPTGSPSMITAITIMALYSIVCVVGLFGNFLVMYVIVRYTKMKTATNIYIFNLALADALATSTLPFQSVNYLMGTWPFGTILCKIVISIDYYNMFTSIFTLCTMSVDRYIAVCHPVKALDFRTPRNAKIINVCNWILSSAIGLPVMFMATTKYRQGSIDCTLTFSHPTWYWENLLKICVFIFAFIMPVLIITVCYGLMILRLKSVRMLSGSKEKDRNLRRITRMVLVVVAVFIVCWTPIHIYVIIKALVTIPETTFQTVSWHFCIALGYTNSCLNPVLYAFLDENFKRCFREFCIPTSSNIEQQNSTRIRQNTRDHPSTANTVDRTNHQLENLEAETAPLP

Chain of Kappa-type opioid receptor (P41145 whole entry): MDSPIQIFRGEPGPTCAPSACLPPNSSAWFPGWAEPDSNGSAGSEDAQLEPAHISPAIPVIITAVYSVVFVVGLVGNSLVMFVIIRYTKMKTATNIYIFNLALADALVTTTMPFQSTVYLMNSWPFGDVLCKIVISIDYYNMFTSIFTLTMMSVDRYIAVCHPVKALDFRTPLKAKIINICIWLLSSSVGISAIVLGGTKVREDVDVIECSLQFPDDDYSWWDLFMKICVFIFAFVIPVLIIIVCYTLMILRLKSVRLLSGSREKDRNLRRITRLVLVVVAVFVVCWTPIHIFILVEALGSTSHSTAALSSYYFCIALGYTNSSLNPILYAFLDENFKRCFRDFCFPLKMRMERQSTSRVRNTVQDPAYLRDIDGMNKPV
T1 sequence (P41143 whole entry): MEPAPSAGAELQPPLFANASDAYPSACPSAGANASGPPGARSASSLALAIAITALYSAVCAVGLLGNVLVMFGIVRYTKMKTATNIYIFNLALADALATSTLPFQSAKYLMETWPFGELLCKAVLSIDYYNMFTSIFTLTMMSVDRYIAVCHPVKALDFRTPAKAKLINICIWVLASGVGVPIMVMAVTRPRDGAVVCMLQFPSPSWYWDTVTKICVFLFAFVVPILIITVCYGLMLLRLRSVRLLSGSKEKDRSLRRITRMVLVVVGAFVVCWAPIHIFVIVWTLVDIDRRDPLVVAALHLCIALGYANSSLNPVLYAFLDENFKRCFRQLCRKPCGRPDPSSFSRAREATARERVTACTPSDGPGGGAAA

SMILES	Ratio Ki [1]	Ratio Ki [2]	Emax [3] [%]	pEC50 [4]	pKi [5]	pKi [6]	pKi [7]
CCN1CC[C@]23c4c5ccc(O)c4O[C@H]2c2nc4ccccc4cc2C[C@@]3(O)[C@H]1C5	53.7	75.4	41.2	8.17	8.05	6.32	6.17
Oc1ccc2c3c1O[C@H]1c4nc5ccccc5cc4C[C@@]4(O)[C@@H](C2)N(CC2CC2)CC[C@]314	27.1	51.1	32.4	8.01	9.39	7.96	7.68
Oc1ccc2c3c1O[C@H]1c4[nH]c5ccccc5c4C[C@@]4(O)[C@@H](C2)N(CC(F)(F)F)CC[C@]314			-44.8	7.34	6.87	< 6.00	< 6.00
C=CCN(CC=C)[C@@H](Cc1ccc(O)cc1)C(=O)NC(C)(C)C(=O)NC(C)(C)C(=O)N[C@@H](Cc1ccccc1)C(=O)N[C@@H](CC(C)C)C(=O)O ({Tyr(Nα,Nα-allyl2)}-[Aib][Aib]FL-OH)			-100	6.94			
Oc1ccc2c3c1O[C@H]1c4[nH]c5ccccc5c4C[C@@]4(O)[C@@H](C2)N(CCF)CC[C@]314	204	348	-38.1	6.66	8.71	6.40	6.17
CCCN1CC[C@]23c4c5ccc(O)c4O[C@H]2c2[nH]c4ccccc4c2C[C@@]3(O)[C@H]1C5	66.9	120			8.95	7.13	6.88
Oc1ccc2c3c1O[C@H]1c4nc5ccccc5cc4C[C@@]4(O)[C@@H](C2)N(CC(F)(F)F)CC[C@]314					7.42	< 6.00	< 6.00
Oc1ccc2c3c1O[C@H]1c4[nH]c5ccccc5c4C[C@@]4(O)[C@@H](C2)N(CC(F)F)CC[C@]314			-48.6	7.76	7.81	< 6.00	< 6.00
Oc1ccc2c3c1O[C@H]1c4nc5ccccc5cc4C[C@@]4(O)[C@@H](C2)N(CCF)CC[C@]314	153	75.7	27.1	7.61	8.25	6.07	6.37
CCN1CC[C@]23c4c5ccc(O)c4O[C@H]2c2[nH]c4ccccc4c2C[C@@]3(O)[C@H]1C5	172	291			8.57	6.33	6.10
Oc1ccc2c3c1O[C@H]1c4nc5ccccc5cc4C[C@@]4(O)[C@@H](C2)N(CC(F)F)CC[C@]314					7.74	< 6.00	< 6.00
CCCN1CC[C@]23c4c5ccc(O)c4O[C@H]2c2nc4ccccc4cc2C[C@@]3(O)[C@H]1C5	113	44.5	62.4	8.23	8.56	6.50	6.91

Source: ChEMBL document CHEMBL3596130 (Bioorg Med Chem Lett, 2015)
